The source of these data is ChEMBL document CHEMBL1201862, “PubChem BioAssay data set” (2004).

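Growth conditions: 96-well plates. Treatment: test compound, 48 hours, 5 concentrations. Analysis: linear interpolation between bracketing concentrations; unreached endpoints set to highest concentration. Abbreviation: GI50, concentration required for 50% inhibition of growth.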 Activity calls are given as the source filed them. No stated cut-off is given here; in the data, active = GI50 up to about 1.1 µM and inactive = higher.

Among the test systems are UACC-257; SW-620; SN12C; M19-MEL; U-251; A549; RPMI-8226; A498; OVCAR-5; SNB-19; CAKI-1; ACHN; IGROV-1; SK-OV-3; UO-31; CCRF-CEM; NCI-H226; SNB-75; PC-3; SR.
Holding throughout (assay): growth of human tumour cells (NCI), 48 h

For the compound `CC(/C=C1\CCC(CN(C)C)C1=O)c1cccc(Br)c1` (stereo not drawn), the GI50 with UACC-257 was 17.3 µM (inactive); in the assay on SW-620, 8.18 µM (inactive); with SN12C, 22 µM (inactive); with M19-MEL, 20.7 µM (inactive); in the assay with U-251, 18.2 µM (inactive); in the assay with A549 it was 31.3 µM (inactive). Moreover, the GI50 is 2 µM (inactive) in the assay with RPMI-8226; 26.5 µM (inactive) in the assay with A498; 22.8 µM (inactive) in the assay on OVCAR-5; 26 µM (inactive) with SNB-19; 8.15 µM (inactive) in the assay with CAKI-1; 13.4 µM (inactive) in the assay with ACHN. In addition, the GI50 was 13.8 µM (inactive) in the assay with IGROV-1; 65.2 µM (inactive) in the assay on SK-OV-3; 19.1 µM (inactive) with UO-31; 2.52 µM (inactive) in the assay on CCRF-CEM; 22.3 µM (inactive) in the assay on NCI-H226.

As for `Cc1cccc(C(C)(C)C)c1NC(=O)C(=O)Cc1nc2ccccc2s1`, the GI50 in the assay on UACC-257, in the assay with SW-620, in the assay on SN12C, with M19-MEL, in the assay on U-251 and in the assay with A549 was > 100 µM (inactive) each time. Moreover, the GI50 with RPMI-8226, in the assay on A498, in the assay with OVCAR-5, in the assay with SNB-19, with CAKI-1 and with ACHN was > 100 µM (inactive) in each case. Further, the GI50 with IGROV-1, in the assay with SK-OV-3, in the assay with UO-31, in the assay on NCI-H226 and with SNB-75 was > 100 µM (inactive) each time.

In the case of `Cc1noc2cccc(O)c12`, the GI50 in the assay on UACC-257, in the assay with SW-620, with SN12C, in the assay with M19-MEL, with U-251 and with A549 was > 100 µM (inactive) in each case. For the same compound, the GI50 in the assay with A498, with OVCAR-5, in the assay on SNB-19, in the assay with CAKI-1, with ACHN and with IGROV-1 was > 100 µM (inactive) each time. For the same compound, the GI50 in the assay with SK-OV-3, in the assay with UO-31, in the assay with CCRF-CEM, in the assay with NCI-H226 and in the assay on SNB-75 was > 100 µM (inactive) throughout.

For the compound `CC1OC(n2cc(Cl)c(=O)[nH]c2=O)C=C(OC(=O)c2ccccc2)C1=O` (stereo not drawn), the GI50 in the assay with UACC-257, in the assay on SW-620, with SN12C, in the assay with M19-MEL, in the assay with U-251 and in the assay on A549 was > 100 µM (inactive) throughout. For the same compound, the GI50 with RPMI-8226, with SNB-19, in the assay on CAKI-1, with ACHN, in the assay on IGROV-1 and in the assay on SK-OV-3 was > 100 µM (inactive) throughout. In addition, the GI50 in the assay with UO-31, in the assay with CCRF-CEM and in the assay with SNB-75 was > 100 µM (inactive) throughout.

`C=C(c1ccccc1N)[C@@]1(O)C[C@H](/C(=C\C)CO)C[C@@H]1NCc1ccccc1`: the GI50 in the assay on UACC-257 was 17.9 µM (inactive); with SW-620, 21.7 µM (inactive); with SN12C it was 32 µM (inactive); with M19-MEL, 23.6 µM (inactive); in the assay on U-251, 17.2 µM (inactive); with A549 it was 37 µM (inactive). The GI50 is 19.1 µM (inactive) in the assay on RPMI-8226; 82.6 µM (inactive) with A498; 23.2 µM (inactive) in the assay on SNB-19; 36.8 µM (inactive) with ACHN; 31.9 µM (inactive) in the assay with IGROV-1; 21.5 µM (inactive) in the assay on SK-OV-3. The GI50 is 17.4 µM (inactive) with UO-31, 21.2 µM (inactive) in the assay with CCRF-CEM, 15 µM (inactive) in the assay with NCI-H226 and 10.8 µM (inactive) in the assay on SNB-75.

As to `NNC(=O)/C(=C/c1ccc(Cl)c(Cl)c1)NC(=O)c1ccccc1`, the GI50 with UACC-257, with SW-620, in the assay with SN12C, in the assay with M19-MEL, in the assay with U-251 and with A549 was > 100 µM (inactive) each time. For the same compound, the GI50 with RPMI-8226 was 38.5 µM (inactive); in the assay on OVCAR-5, > 100 µM (inactive); in the assay with SNB-19, > 100 µM (inactive); in the assay on ACHN, > 100 µM (inactive); in the assay on IGROV-1 it was > 100 µM (inactive); with UO-31, > 100 µM (inactive). For the same compound, the figures for the GI50 in the assay on CCRF-CEM, with NCI-H226 and in the assay with SNB-75 were 92.5 µM (inactive), > 100 µM (inactive) and > 100 µM (inactive), respectively.

As for `COC(=O)/C1=C/C2CC(/C=C(/c3ccccc3)C(=O)O1)C2`, the GI50 in the assay on UACC-257 is 8.53 µM (inactive); with SW-620, 33.7 µM (inactive); with SN12C it was 24.4 µM (inactive); with M19-MEL, 23.1 µM (inactive); with U-251, 19.7 µM (inactive); in the assay on A549, 29.9 µM (inactive). Moreover, the GI50 in the assay on RPMI-8226 is 18.3 µM (inactive); in the assay on SNB-19, 35.4 µM (inactive); with ACHN, 26.3 µM (inactive); with IGROV-1 it was 42.4 µM (inactive); in the assay with SK-OV-3, 36.7 µM (inactive); with UO-31 it was 32.9 µM (inactive). Also, the GI50 in the assay on CCRF-CEM was 19.5 µM (inactive); with NCI-H226, 20.4 µM (inactive); in the assay with SNB-75, 5.93 µM (inactive).

`Cc1cc(NS(=O)(=O)c2ccc(Nc3c4ccccc4nc4c(C(=O)Nc5ccc(S(N)(=O)=O)cc5)cccc34)cc2)no1`: the GI50 with UACC-257 is > 100 µM (inactive); in the assay with SW-620 it was 74.3 µM (inactive); with SN12C it was 36.2 µM (inactive); with M19-MEL, 25.1 µM (inactive); with U-251 it was 24.8 µM (inactive); in the assay on A549 it was > 100 µM (inactive). Also, the GI50 in the assay with RPMI-8226 was > 100 µM (inactive); in the assay on A498, > 100 µM (inactive); in the assay with OVCAR-5, > 100 µM (inactive); with SNB-19, 32.7 µM (inactive); in the assay on CAKI-1, > 100 µM (inactive); in the assay with ACHN, > 100 µM (inactive). Besides, the GI50 was 70.1 µM (inactive) with IGROV-1; > 100 µM (inactive) in the assay on SK-OV-3; 80.9 µM (inactive) in the assay with UO-31; 26.5 µM (inactive) in the assay on CCRF-CEM; 72.8 µM (inactive) with SNB-75.

Take `COc1ccc(C=O)c(N(C)C(=O)C(C)(C)C)c1`: the GI50 with UACC-257, with SW-620, with SN12C, in the assay on M19-MEL, in the assay on U-251 and with A549 was > 100 µM (inactive) in each case. Also, the GI50 with RPMI-8226, in the assay on A498, with SNB-19, in the assay with ACHN, with IGROV-1 and with SK-OV-3 was > 100 µM (inactive) in each case. Also, the GI50 with UO-31, in the assay on CCRF-CEM, in the assay with NCI-H226 and with SNB-75 was > 100 µM (inactive) throughout.

`NS(=O)(=O)c1cc2c(cc1Cl)NC(/C(=N/NC(=O)c1ccncc1)C1C(=O)NC(=O)NC1=O)=NS2(=O)=O`: the GI50 in the assay with UACC-257, in the assay on SW-620, in the assay on M19-MEL, with U-251, with A549 and with RPMI-8226 was > 100 µM (inactive) in each case. The GI50 is > 100 µM (inactive) with A498; > 100 µM (inactive) in the assay on OVCAR-5; 83.6 µM (inactive) in the assay with SNB-19; > 100 µM (inactive) with CAKI-1; > 100 µM (inactive) in the assay on ACHN; > 100 µM (inactive) with IGROV-1. For the same compound, the GI50 is > 100 µM (inactive) in the assay on SK-OV-3, 95.3 µM (inactive) with UO-31 and > 100 µM (inactive) in the assay on CCRF-CEM.

On to `Cc1c(C)c(S(=O)(=O)N(CCCCCCN)OCCCN)c(C)c2c1OC(C)(C)CC2`, for which the GI50 was 11 µM (inactive) in the assay with UACC-257; 7.45 µM (inactive) with SW-620; 3.7 µM (inactive) in the assay on PC-3; 13 µM (inactive) with SN12C; 4.46 µM (inactive) with U-251; 4.94 µM (inactive) in the assay on A549. The GI50 in the assay on RPMI-8226 is 4.39 µM (inactive); in the assay with A498 it was 16.1 µM (inactive); in the assay on OVCAR-5, > 28.7 µM (inactive); with SNB-19, 3.96 µM (inactive); in the assay with CAKI-1 it was 15.8 µM (inactive); in the assay on ACHN, 8.99 µM (inactive). Besides, the GI50 with IGROV-1 was 2 µM (inactive); in the assay on SK-OV-3, 10.1 µM (inactive); in the assay with UO-31 it was 11.8 µM (inactive); in the assay with CCRF-CEM, 2.31 µM (inactive); in the assay with SR, 5.92 µM (inactive); with NCI-H226 it was 5.37 µM (inactive). The GI50 in the assay on SNB-75 was 2.99 µM (inactive).

In the case of `CCc1ccc2c(c1)/C(=C1/Nc3ccccc3C1=O)C(=O)N2`, the GI50 is 30.5 µM (inactive) with UACC-257; 63.2 µM (inactive) with SW-620; 14.5 µM (inactive) in the assay on PC-3; 68.2 µM (inactive) in the assay on SN12C; 13.5 µM (inactive) in the assay on U-251; 13.8 µM (inactive) with A549. The GI50 in the assay with RPMI-8226 is > 100 µM (inactive); in the assay on A498 it was 4.13 µM (inactive); in the assay with OVCAR-5, 44.9 µM (inactive); in the assay on SNB-19 it was 11 µM (inactive); in the assay on CAKI-1, 17.2 µM (inactive); in the assay on ACHN, 5.66 µM (inactive). For the same compound, the GI50 was 0.124 µM (active) with IGROV-1; 10.3 µM (inactive) in the assay on SK-OV-3; 7.38 µM (inactive) in the assay with UO-31; 36.1 µM (inactive) in the assay with CCRF-CEM; 14.1 µM (inactive) in the assay with SR; 18.7 µM (inactive) with NCI-H226. Besides, the GI50 in the assay with SNB-75 is 22.3 µM (inactive).
